According to PubChem BioAssay AID2060894 (Molecular Pharmacology Branch, DTP, NCI, 2025):

System: K12877-001-R-J1-PDC complex spheroid viability
Assay: Anticancer human tumor K12877-001-R-J1-PDC patient-derived lung adenocarcinoma cell line growth inhibition [RAS]
Conditions: for IC50: curve of first compound; for viability, T/C: stronger effect = lower value
Summary of the method: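 Agents were tested in combination matrices in half-log decrements from a top concentration at or near clinical Cmax (10 microM if undetermined). Targets were multi-cell spheroids of tumour lines plus HUVEC and MSC stromal cells.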
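Note: spheroids exposed to agents for one week before readout.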
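Throughout, for viability, T/C: tumour cells co-cultured with HUVEC and mesenchymal stem cells in spheroids.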

C=CC(=O)N1CCN(c2nc(OCC3CCCN3C)nc3c(F)c(-c4nc(N)cc(C)c4C(F)(F)F)c(Cl)cc23)C(C)C1 (centres undefined) + CCn1c(-c2cc(N3CCN(C)CC3)cnc2C(C)OC)c2c3cc(ccc31)-c1csc(n1)CC(NC(=O)C1CC1C)C(=O)N1CCCC(N1)C(=O)OCC(C)(C)C2
IC50 (second compound 0.000949 µM): > 1 µM | IC50 (second compound 0.003 µM): > 1 µM | IC50 (second compound 0.00949 µM): > 1 µM | IC50 (second compound 0.03 µM): > 1 µM | IC50 (second compound 0.0949 µM): > 1 µM | IC50 (second compound 0.3 µM): > 1 µM | viability, T/C (second compound 0.000949 µM, first compound 0.00316 µM): 80.8% | viability, T/C (second compound 0.000949 µM, first compound 0.01 µM): 71.5% | viability, T/C (second compound 0.000949 µM, first compound 0.0316 µM): 78.4% | viability, T/C (second compound 0.000949 µM, first compound 0.1 µM): 69.2% | viability, T/C (second compound 0.000949 µM, first compound 0.316 µM): 69.5% | viability, T/C (second compound 0.000949 µM, first compound 1 µM): 68% | viability, T/C (second compound 0.003 µM, first compound 0.00316 µM): 66.2% | viability, T/C (second compound 0.003 µM, first compound 0.01 µM): 66.7% | viability, T/C (second compound 0.003 µM, first compound 0.0316 µM): 66.4% | viability, T/C (second compound 0.003 µM, first compound 0.1 µM): 60.6% | viability, T/C (second compound 0.003 µM, first compound 0.316 µM): 62.7% | viability, T/C (second compound 0.003 µM, first compound 1 µM): 67% | viability, T/C (second compound 0.00949 µM, first compound 0.00316 µM): 69.7% | viability, T/C (second compound 0.00949 µM, first compound 0.01 µM): 62% | viability, T/C (second compound 0.00949 µM, first compound 0.0316 µM): 70.1% | viability, T/C (second compound 0.00949 µM, first compound 0.1 µM): 76.1% | viability, T/C (second compound 0.00949 µM, first compound 0.316 µM): 63.6% | viability, T/C (second compound 0.00949 µM, first compound 1 µM): 58.2% | viability, T/C (second compound 0.03 µM, first compound 0.00316 µM): 93.4% | viability, T/C (second compound 0.03 µM, first compound 0.01 µM): 84.5% | viability, T/C (second compound 0.03 µM, first compound 0.0316 µM): 92.3% | viability, T/C (second compound 0.03 µM, first compound 0.1 µM): 81.2% | viability, T/C (second compound 0.03 µM, first compound 0.316 µM): 81.2% | viability, T/C (second compound 0.03 µM, first compound 1 µM): 97.2% | viability, T/C (second compound 0.0949 µM, first compound 0.00316 µM): 116% | viability, T/C (second compound 0.0949 µM, first compound 0.01 µM): 95.8% | viability, T/C (second compound 0.0949 µM, first compound 0.0316 µM): 101% | viability, T/C (second compound 0.0949 µM, first compound 0.1 µM): 102% | viability, T/C (second compound 0.0949 µM, first compound 0.316 µM): 97.6% | viability, T/C (second compound 0.0949 µM, first compound 1 µM): 98% | viability, T/C (second compound 0.3 µM, first compound 0.00316 µM): 96.8% | viability, T/C (second compound 0.3 µM, first compound 0.01 µM): 93.4% | viability, T/C (second compound 0.3 µM, first compound 0.0316 µM): 90.7% | viability, T/C (second compound 0.3 µM, first compound 0.1 µM): 88.6% | viability, T/C (second compound 0.3 µM, first compound 0.316 µM): 84.3% | viability, T/C (second compound 0.3 µM, first compound 1 µM): 91.1%

C=CC(=O)N1CCN(c2nc(OCC3CCCN3C)nc3c(F)c(-c4nc(N)cc(C)c4C(F)(F)F)c(Cl)cc23)C(C)C1 (centres undefined) + C#Cc1c(F)ccc2cc(O)cc(-c3ncc4c(N5CC6CCC(C5)N6)nc(OCC56CCCN5CC(F)C6)nc4c3F)c12
IC50 (second compound 0.0316 µM): > 1 µM | IC50 (second compound 0.1 µM): > 1 µM | IC50 (second compound 0.316 µM): > 1 µM | IC50 (second compound 1 µM): > 1 µM | IC50 (second compound 3.16 µM): > 1 µM | IC50 (second compound 10 µM): > 1 µM | viability, T/C (second compound 0.0316 µM, first compound 0.00316 µM): 97.7% | viability, T/C (second compound 0.0316 µM, first compound 0.01 µM): 87.3% | viability, T/C (second compound 0.0316 µM, first compound 0.0316 µM): 90.9% | viability, T/C (second compound 0.0316 µM, first compound 0.1 µM): 79.4% | viability, T/C (second compound 0.0316 µM, first compound 0.316 µM): 85.3% | viability, T/C (second compound 0.0316 µM, first compound 1 µM): 72.8% | viability, T/C (second compound 0.1 µM, first compound 0.00316 µM): 99.2% | viability, T/C (second compound 0.1 µM, first compound 0.01 µM): 84.5% | viability, T/C (second compound 0.1 µM, first compound 0.0316 µM): 83.7% | viability, T/C (second compound 0.1 µM, first compound 0.1 µM): 78.3% | viability, T/C (second compound 0.1 µM, first compound 0.316 µM): 83.8% | viability, T/C (second compound 0.1 µM, first compound 1 µM): 75.5% | viability, T/C (second compound 0.316 µM, first compound 0.00316 µM): 95.8% | viability, T/C (second compound 0.316 µM, first compound 0.01 µM): 86.2% | viability, T/C (second compound 0.316 µM, first compound 0.0316 µM): 83.4% | viability, T/C (second compound 0.316 µM, first compound 0.1 µM): 89.7% | viability, T/C (second compound 0.316 µM, first compound 0.316 µM): 75% | viability, T/C (second compound 0.316 µM, first compound 1 µM): 81.9% | viability, T/C (second compound 1 µM, first compound 0.00316 µM): 101% | viability, T/C (second compound 1 µM, first compound 0.01 µM): 85.3% | viability, T/C (second compound 1 µM, first compound 0.0316 µM): 77.5% | viability, T/C (second compound 1 µM, first compound 0.1 µM): 89.8% | viability, T/C (second compound 1 µM, first compound 0.316 µM): 78.2% | viability, T/C (second compound 1 µM, first compound 1 µM): 77.8% | viability, T/C (second compound 3.16 µM, first compound 0.00316 µM): 106% | viability, T/C (second compound 3.16 µM, first compound 0.01 µM): 92.2% | viability, T/C (second compound 3.16 µM, first compound 0.0316 µM): 80.7% | viability, T/C (second compound 3.16 µM, first compound 0.1 µM): 83.1% | viability, T/C (second compound 3.16 µM, first compound 0.316 µM): 85% | viability, T/C (second compound 3.16 µM, first compound 1 µM): 73.9% | viability, T/C (second compound 10 µM, first compound 0.00316 µM): 94.4% | viability, T/C (second compound 10 µM, first compound 0.01 µM): 87.3% | viability, T/C (second compound 10 µM, first compound 0.0316 µM): 79.1% | viability, T/C (second compound 10 µM, first compound 0.1 µM): 79.8% | viability, T/C (second compound 10 µM, first compound 0.316 µM): 78.2% | viability, T/C (second compound 10 µM, first compound 1 µM): 83.2%
